The source of these data is patent publication US7572770B2, “Use of an interleukin 1 receptor antagonist and/or pyrrolidinedithiocarbamate for the treatment or prophylaxis of type 2 diabetes” (University of Zurich, priority 2002, dated 2009).

For one assay, the system named is Fas. The experiment in a line: Fas expression in human islets (Western blot, RT-PCR, immunostaining). Format: cell-based. As to conditions: 33.3 mM glucose with IL-1Ra. As to the method: Western blot analysis. Islets were cultured in a culture medium in non-adherent plastic dishes. One day after isolation, the medium was changed and groups of 200 islets were incubated for 44 hours in culture medium containing 5.5 or 33.3 mM glucose without or with 2 ng/ml IL-1β or 500 ng/ml IL-1Ra. At the end of the incubations, islets were washed in PBS, suspended in 50 μl sample buffer containing 125 mM Tris-HCl, pH 6.8, 4% SDS, 10% glycerol, 0.3% bromphenol blue, 1.8% β-mercaptoethanol and boiled for 5 min. Equivalent amounts of each treatment group were run on 15% SDS polyacrylamide gels. […] Intensity of bands was analyzed using Multianalyst™ (Bio Rad, Laboratories inc., Hercules, Calif.).
RNA extraction, RT-PCR and sequencing of RT-PCR product. […] The conditions of the PCR amplification for IL-1β and Fas were: denaturation 30 seconds at 94° C., annealing 30 seconds at 60° C. and elongation 30 seconds at 72° C., followed for real time PCR by quantification 5 seconds at 80° C., 45 cycles. […] For quantitative analysis, we used the Light Cycler quantitative PCR system (Roche, Basel, Switzerland) and performed quantitative PCR with a commercial kit (Light Cycler-DNA Master SYBR Green I; Roche). […]
In general terms: Immunoblotting shows a protein as a band on a membrane.

In a further assay the target is T1, type II IL-1R (Homo sapiens, UniProt P27930).
T1 sequence (P27930 14-398): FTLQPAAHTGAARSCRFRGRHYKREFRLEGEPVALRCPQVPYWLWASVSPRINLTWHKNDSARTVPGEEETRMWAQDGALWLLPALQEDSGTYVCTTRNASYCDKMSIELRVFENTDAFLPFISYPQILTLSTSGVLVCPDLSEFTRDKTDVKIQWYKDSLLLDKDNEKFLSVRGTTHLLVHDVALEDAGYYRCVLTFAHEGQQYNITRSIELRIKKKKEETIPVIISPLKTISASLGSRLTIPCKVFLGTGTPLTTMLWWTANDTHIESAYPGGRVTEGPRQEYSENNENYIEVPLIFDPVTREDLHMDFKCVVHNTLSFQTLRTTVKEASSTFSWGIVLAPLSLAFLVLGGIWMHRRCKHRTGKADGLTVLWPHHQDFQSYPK
As to conditions: read-out: Kd, binding to type II IL-1R; cited from earlier work.

A further assay deals with human islets β-cells. As to the kind of experiment: β-cell apoptosis (TUNEL) and necrosis (propidium iodide) in human islets. Format: cell-based. Conditions: 4 days. As to the method:
Islet isolation and culture. Islets were isolated from pancreases of eleven organ donors at the Department of Surgery, University of Geneva Medical Center, as described (32-34). The islet purity was >95%, as judged by dithizone staining (if this degree of purity was not primarily achieved by routine isolation, islets were handpicked). […] For long-term in vitro studies, the islets were cultured on extracellular matrix-coated plates derived from bovine corneal endothelial cells (Novamed Ltd., Jerusalem, Israel), allowing the cells to attach to the dishes and spread, preserving their functional integrity (7;35). Islets were cultured in CMRL 1066 medium containing 100 U/ml penicillin, 100 μg/ml streptomycin and 10% fetal calf serum (Gibco, Gaithersburg, Md.), hereinafter referred to as culture medium. Two days after plating, when most islets were attached and began to flatten, the medium was changed to culture medium containing 5.5, 11.1 or 33.3 mM glucose. In some experiments, islets were additionally cultured with 2 ng/ml recombinant human IL-1β, 1000 U/ml recombinant human IFNγ (ReproTech EC Ltd, London, UK), 500 ng/ml IL-1β receptor antagonist (IL-1Ra) (R&D Systems Inc., Minneapolis, Minn.), 1 ng/ml membrane bound Fas-ligand (FasL) (36) (upstate biotechnology, Lake Placid, N.Y.) or with 100 μM pyrrolidinedithiocarbamate (PDTC; Sigma; 2 h per 2 d of culture).
β-cell apoptosis. The free 3-OH strand breaks resulting from DNA degradation were detected by the terminal deoxynucleotidyl transferase-mediated dUTP nick-end labeling (TUNEL) technique (38). After washing with PBS, cultured islets were fixed in 4% paraformaldehyde (30 min, room temperature) followed by permeabilisation with 0.5% triton X-100 (4 min, room temperature). The TUNEL assay was performed according to the manufacturer's instructions (In Situ Cell Death Detection Kit, AP; Boehringer Mannheim, Germany). […] The samples were immediately evaluated by fluorescence microscopy for positively stained […] nuclei.

In general, Kd refers to a measure of binding affinity in units of concentration. Turning to “Interleukin 1 receptor antagonist [IL-1Ra]”, in the assay on Fas, the “glucose-dependent induction of Fas-receptor protein and mRNA” value was “hindered”. Besides, the Kd with type II IL-1R was 7 nM. In addition, the “baseline apoptosis (TUNEL-positive β-cells)” value in the assay on human islets β-cells (5.5 mM glucose) is “did not significantly change baseline apoptosis”. Besides, the “glucose-induced β-cell apoptosis / DNA fragmentation (TUNEL)” value in the assay with human islets β-cells (33.3 mM glucose, with IL-1Ra 500 ng/ml or PDTC 100 μM) is recorded as “protected the β-cells from apoptosis”.
